Patent publication US12371454B2, “Cyclic peptide compound having Kras inhibitory action” (priority 2019, dated 2025)
Starred links: 1 amine or outer side, 2 acyl side, 3 side chain; linkers in the order of their positions; H or OH if unused. Positions of bridges follow the written chain, without caps; N, C: chain ends. Non-standard residues stand in square brackets, D forms with d. Residues, ends and D or L forms follow the SMILES beside them. *: point of attachment. hPhe(3-Cl-4-CF3) = N[C@@H](CCc1ccc(C(F)(F)F)c(Cl)c1)C(=O)O; hPhe(3-F,4-CF3) = N[C@@H](CCc1ccc(C(F)(F)F)c(F)c1)C(=O)O; NMePhe(4-CF3) = CN[C@@H](Cc1ccc(C(F)(F)F)cc1)C(=O)O; 3Oxa8azabicyclo(3.2.1)octane = C1CC2COCC1N2*; NMePhe(4-Cl) = CN[C@@H](Cc1ccc(Cl)cc1)C(=O)O; NMePhe(4-Me) = CN[C@@H](Cc1ccc(C)cc1)C(=O)O; NMePhe(3-F) = CN[C@@H](Cc1cccc(F)c1)C(=O)O; NMedβ3hAla = C[C@H](CC(=O)[*:2])N(C)[*:1]; NMeAla(cPent) = CN[C@@H](CC1CCCC1)C(=O)O; NMePhe(2-F) = CN[C@@H](Cc1ccccc1F)C(=O)O; NMeGly(cPent) = CN[C@H](C(=O)O)C1CCCC1; Ala(cPent) = N[C@@H](CC1CCCC1)C(=O)O; NMeAla(cPr) = CN[C@@H](CC1CC1)C(=O)O; NMeGly(cBu) = CN[C@H](C(=O)O)C1CCC1; NMeCha = CN[C@@H](CC1CCCCC1)C(=O)O; NMehLeu = CN[C@@H](CCC(C)C)C(=O)O; NMeChg = CN[C@H](C(=O)O)C1CCCCC1; NMeI = CC[C@H](C)[C@H](NC)C(=O)O; NMeD = CN[C@@H](CC(=O)O)C(=O)O; NMeL = CN[C@@H](CC(C)C)C(=O)O; NMehSer = CN[C@@H](CCO)C(=O)O; NMeV = CN[C@H](C(=O)O)C(C)C; d(β3hA) = C[C@@H](N)CC(=O)O; NMeAbu = CC[C@H](NC)C(=O)O; Ac6c = NC1(C(=O)O)CCCCC1; NMeA = CN[C@@H](C)C(=O)O; Piperidide = C1CCN(*)CC1; Pyrrolidide = C1CCN(*)C1; Ac5c = NC1(C(=O)O)CCCC1; Aze = O=C(O)[C@@H]1CCN1; Sar = CNCC(=O)O

What was measured:
[1] = molecular target: T1, Kras and SOS1 (biotin-tagged human Kras loaded with GDP, His-tagged human SOS1) (Homo sapiens, UniProt P01116, G12D); assay: Protein-protein interaction inhibition between Kras and SOS1 (KrasGl2D-SOS PPI) using AlphaScreen; format: binding; conditions: AlphaScreen; biotin-tagged human Kras loaded with GDP, His-tagged human SOS1; read-out: KRAS G12D-SOS PPI IC50
T1 construct: made in house; host or cells: E. coli (stated for Kras only)
T1 sequence (P01116 1-188 isoform P01116-2 G12D): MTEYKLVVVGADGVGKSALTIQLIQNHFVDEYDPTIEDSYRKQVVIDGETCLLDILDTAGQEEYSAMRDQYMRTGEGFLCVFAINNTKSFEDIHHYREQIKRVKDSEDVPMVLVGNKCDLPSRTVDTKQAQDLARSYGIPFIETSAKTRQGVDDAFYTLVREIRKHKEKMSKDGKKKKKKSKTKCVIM
Method in brief: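 Energy transfer from nickel-chelate donor beads bound to His-SOS1 to streptavidin acceptor beads bound to biotin-Kras, expressed in E. coli and loaded with GDP after purification, was monitored. Donors were excited at 680 nm; singlet oxygen reaching acceptors gave emission read at 520-620 nm.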

[2] = tested on: Human pancreatic cancer cell line AsPC-1; assay: Measurement of AsPC-1 cell growth inhibition (AsPC-1 CGI); format: cell-based; conditions: 96 h
Method in brief: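 AsPC-1 cells in 15% FBS RPMI-1640 were exposed to test compound for 96 hours at 37° C, with CellTiter-Glo as endpoint.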

Compound | IC50 [1] [µM] | IC50 [2] [µM]
CC[C@H](C)[C@@H]1NC(=O)[C@H](CC(C)C)N(C)C(=O)C[C@@H](C)NC(=O)[C@H]([C@@H](C)CC)N(C)C(=O)C2(CCCC2)NC(=O)[C@@H]2CCCN2C(=O)[C@H](CCc2ccc(C(F)(F)F)c(Cl)c2)NC(=O)CN(C)C(=O)[C@H](CC2CCCCC2)N(C)C(=O)CN(C)C(=O)CN(C)C1=O [Compound 708] (cyclo([Ac5c][NMeI][d(β3hA)][NMeL]I[Sar][Sar][NMeCha][Sar][hPhe(3-Cl-4-CF3)]P)) | 0.011 | 0.05 to 0.1
CC[C@H](C)[C@@H]1NC(=O)[C@H](CC(C)C)N(C)C(=O)C[C@@H](C)NC(=O)[C@H](C(C)C)N(C)C(=O)C2(CCCC2)NC(=O)[C@@H]2CCCN2C(=O)[C@H](CCc2ccc(C(F)(F)F)c(Cl)c2)NC(=O)CN(C)C(=O)[C@H](Cc2ccc(C(F)(F)F)cc2)N(C)C(=O)CN(C)C(=O)CN(C)C1=O [Compound 1620] (cyclo([Ac5c][NMeV][d(β3hA)][NMeL]I[Sar][Sar][NMePhe(4-CF3)][Sar][hPhe(3-Cl-4-CF3)]P)) | 0.0054 | 0.05 to 0.1
CC[C@H](C)[C@@H]1NC(=O)[C@H](CC(C)C)N(C)C(=O)C[C@@H](C)N(C)C(=O)[C@H](C(C)C)N(C)C(=O)C2(CCCC2)NC(=O)[C@@H]2CCCN2C(=O)[C@H](CCc2ccc(C(F)(F)F)c(Cl)c2)NC(=O)CN(C)C(=O)[C@H](CC2CC2)N(C)C(=O)CN(C)C(=O)CN(C)C1=O [Compound 930] (cyclo([Ac5c][NMeV][NMedβ3hAla][NMeL]I[Sar][Sar][NMeAla(cPr)][Sar][hPhe(3-Cl-4-CF3)]P)) | 0.039 | 0.1 to 0.5
CC(C)C[C@H]1C(=O)N[C@@H](CC2CCCC2)C(=O)N(C)CC(=O)N(C)CC(=O)N(C)[C@@H](CC2CCCCC2)C(=O)N(C)CC(=O)N[C@@H](CCc2ccc(C(F)(F)F)c(Cl)c2)C(=O)N2CCC[C@H]2C(=O)NC2(CCCC2)C(=O)N(C)[C@@H](C2CCCCC2)C(=O)N(C)[C@H](C(=O)N2CCCCC2)CC(=O)N1C [Compound 1838] ([NMeL][Ala(cPent)][Sar][Sar][NMeCha][Sar][hPhe(3-Cl-4-CF3)]P[Ac5c][NMeChg][NMeD]-Piperidide; lactam N-11) | 0.0026 | 0.1 to 0.5
CC[C@H](C)[C@@H]1NC(=O)[C@H](CC(C)C)N(C)C(=O)C[C@@H](C(=O)N2CCCCC2)N(C)C(=O)[C@H](C(C)C)N(C)C(=O)C2(CCCC2)NC(=O)[C@@H]2CCCN2C(=O)[C@H](CCc2ccc(C(F)(F)F)c(Cl)c2)NC(=O)CN(C)C(=O)[C@H](CC2CCCC2)N(C)C(=O)[C@@H]2CCN2C(=O)[C@H](C)N(C)C1=O [Compound 1739] ([NMeL]I[NMeA][Aze][NMeAla(cPent)][Sar][hPhe(3-Cl-4-CF3)]P[Ac5c][NMeV][NMeD]-Piperidide; lactam N-11) | 0.0047 | 0.1 to 0.5
CC[C@H](C)[C@@H]1NC(=O)[C@H](C2CCC2)N(C)C(=O)C[C@@H](C(=O)N2C3CCC2COC3)N(C)C(=O)[C@H](C2CCCCC2)N(C)C(=O)C2(CCCC2)NC(=O)[C@@H]2CCCN2C(=O)[C@H](CCc2ccc(C(F)(F)F)c(Cl)c2)NC(=O)CN(C)C(=O)[C@H](Cc2ccc(C)cc2)N(C)C(=O)CN(C)C(=O)CN(C)C1=O [Compound 353] ([NMeGly(cBu)]I[Sar][Sar][NMePhe(4-Me)][Sar][hPhe(3-Cl-4-CF3)]P[Ac5c][NMeChg][NMeD]-{3Oxa8azabicyclo(3.2.1)octane}; lactam N-11) | 0.00069 | 0.05 to 0.1
CC[C@H](C)[C@@H]1NC(=O)[C@H](CCOC)N(C)C(=O)C[C@@H](C(=O)N2CCCCC2)N(C)C(=O)[C@H](C2CCCCC2)N(C)C(=O)C2(CCCC2)NC(=O)[C@@H]2CCCN2C(=O)[C@H](CCc2ccc(C(F)(F)F)c(Cl)c2)NC(=O)CN(C)C(=O)[C@H](CC2CCCCC2)N(C)C(=O)CN(C)C(=O)CN(C)C1=O [Compound 650] ([NMehSer](Me)I[Sar][Sar][NMeCha][Sar][hPhe(3-Cl-4-CF3)]P[Ac5c][NMeChg][NMeD]-Piperidide; lactam N-11) | 0.0006 | 0.05 to 0.1
CC[C@H](C)[C@@H]1NC(=O)[C@H](CC(C)C)N(C)C(=O)C[C@@H](C(=O)N2CCCCC2)N(C)C(=O)[C@H](C(C)C)N(C)C(=O)C2(CCCC2)NC(=O)[C@@H]2CCCN2C(=O)[C@H](CCc2ccc(C(F)(F)F)c(Cl)c2)NC(=O)CN(C)C(=O)[C@H](CCC(C)C)N(C)C(=O)[C@@H]2CCN2C(=O)[C@H](C)N(C)C1=O [Compound 1709] ([NMeL]I[NMeA][Aze][NMehLeu][Sar][hPhe(3-Cl-4-CF3)]P[Ac5c][NMeV][NMeD]-Piperidide; lactam N-11) | 0.01 | 0.1 to 0.5
CC[C@H](C)[C@@H]1NC(=O)[C@H](CC(C)C)N(C)C(=O)C[C@@H](C(=O)N2CCCC2)N(C)C(=O)[C@H](C(C)C)N(C)C(=O)C2(CCCC2)NC(=O)[C@@H]2CCCN2C(=O)[C@H](CCc2ccc(C(F)(F)F)c(F)c2)NC(=O)CN(C)C(=O)[C@H](CC2CCCCC2)N(C)C(=O)CN(C)C(=O)CN(C)C1=O [Compound 804] ([NMeL]I[Sar][Sar][NMeCha][Sar][hPhe(3-F,4-CF3)]P[Ac5c][NMeV][NMeD]-Pyrrolidide; lactam N-11) | 0.00099 | 0.1 to 0.5
CC[C@H](C)[C@@H]1NC(=O)[C@H](CC(C)C)N(C)C(=O)C[C@@H](C(=O)N2CCCCC2)N(C)C(=O)[C@H](C(C)C)N(C)C(=O)C2(CCCC2)NC(=O)[C@@H]2CCCN2C(=O)[C@H](CCc2ccc(C(F)(F)F)c(Cl)c2)NC(=O)CN(C)C(=O)[C@H](Cc2cccc(F)c2)N(C)C(=O)CN(C)C(=O)CN(C)C1=O [Compound 1557] ([NMeL]I[Sar][Sar][NMePhe(3-F)][Sar][hPhe(3-Cl-4-CF3)]P[Ac5c][NMeV][NMeD]-Piperidide; lactam N-11) | 0.0057 | 0.1 to 0.5
CC[C@H](C)[C@@H]1NC(=O)[C@H](CC(C)C)N(C)C(=O)C[C@@H](C)NC(=O)[C@H](C(C)C)N(C)C(=O)C2(CCCCC2)NC(=O)[C@@H]2CCCN2C(=O)[C@H](CCc2ccc(C(F)(F)F)c(Cl)c2)NC(=O)CN(C)C(=O)[C@H](CC2CCCCC2)N(C)C(=O)CN(C)C(=O)CN(C)C1=O [Compound 439] (cyclo([Ac6c][NMeV][d(β3hA)][NMeL]I[Sar][Sar][NMeCha][Sar][hPhe(3-Cl-4-CF3)]P)) | 0.052 | 0.1 to 0.5
CC[C@H](C)[C@@H]1NC(=O)[C@H](CC(C)C)N(C)C(=O)C[C@@H](C)NC(=O)[C@H](C(C)C)N(C)C(=O)C2(CCCC2)NC(=O)[C@@H]2CCCN2C(=O)[C@H](CCc2ccc(C(F)(F)F)c(Cl)c2)NC(=O)CN(C)C(=O)[C@H](Cc2ccc(Cl)cc2)N(C)C(=O)CN(C)C(=O)CN(C)C1=O [Compound 121] (cyclo([Ac5c][NMeV][d(β3hA)][NMeL]I[Sar][Sar][NMePhe(4-Cl)][Sar][hPhe(3-Cl-4-CF3)]P)) | 0.0054 | 0.1 to 0.5
CC[C@H](C)[C@@H]1NC(=O)[C@H](C2CCC2)N(C)C(=O)C[C@@H](C(=O)N2C3CCC2COC3)N(C)C(=O)[C@H](C2CCCCC2)N(C)C(=O)C2(CCCC2)NC(=O)[C@@H]2CCCN2C(=O)[C@H](CCc2ccc(C(F)(F)F)c(Cl)c2)NC(=O)CN(C)C(=O)[C@H](CC2CCCC2)N(C)C(=O)CN(C)C(=O)CN(C)C1=O [Compound 461] ([NMeGly(cBu)]I[Sar][Sar][NMeAla(cPent)][Sar][hPhe(3-Cl-4-CF3)]P[Ac5c][NMeChg][NMeD]-{3Oxa8azabicyclo(3.2.1)octane}; lactam N-11) | 0.0012 | 0.1 to 0.5
CC[C@H](C)[C@@H]1NC(=O)[C@H](C2CCC2)N(C)C(=O)C[C@@H](C(=O)N2CCCCC2)N(C)C(=O)[C@H](C2CCCCC2)N(C)C(=O)C2(CCCC2)NC(=O)[C@@H]2CCCN2C(=O)[C@H](CCc2ccc(C(F)(F)F)c(Cl)c2)NC(=O)CN(C)C(=O)[C@H](CC2CCCCC2)N(C)C(=O)CN(C)C(=O)CN(C)C1=O [Compound 562] ([NMeGly(cBu)]I[Sar][Sar][NMeCha][Sar][hPhe(3-Cl-4-CF3)]P[Ac5c][NMeChg][NMeD]-Piperidide; lactam N-11) | 0.00056 | 0.05 to 0.1
CC[C@H](C)[C@@H]1NC(=O)[C@H](C2CCCC2)N(C)C(=O)C[C@@H](C(=O)N2CCCCC2)N(C)C(=O)[C@H](C2CCCCC2)N(C)C(=O)C2(CCCC2)NC(=O)[C@@H]2CCCN2C(=O)[C@H](CCc2ccc(C(F)(F)F)c(Cl)c2)NC(=O)CN(C)C(=O)[C@H](CC2CCCCC2)N(C)C(=O)CN(C)C(=O)CN(C)C1=O [Compound 1835] ([NMeGly(cPent)]I[Sar][Sar][NMeCha][Sar][hPhe(3-Cl-4-CF3)]P[Ac5c][NMeChg][NMeD]-Piperidide; lactam N-11) | 0.0011 | 0.05 to 0.1
CC[C@H](C)[C@@H]1NC(=O)[C@H](CC)N(C)C(=O)C[C@@H](C(=O)N2C3CCC2COC3)N(C)C(=O)[C@H](C2CCCCC2)N(C)C(=O)C2(CCCC2)NC(=O)[C@@H]2CCCN2C(=O)[C@H](CCc2ccc(C(F)(F)F)c(Cl)c2)NC(=O)CN(C)C(=O)[C@H](CC2CCCC2)N(C)C(=O)CN(C)C(=O)CN(C)C1=O [Compound 1877] ([NMeAbu]I[Sar][Sar][NMeAla(cPent)][Sar][hPhe(3-Cl-4-CF3)]P[Ac5c][NMeChg][NMeD]-{3Oxa8azabicyclo(3.2.1)octane}; lactam N-11) | 0.00086 | 0.1 to 0.5
CC[C@H](C)[C@@H]1NC(=O)[C@H](CC(C)C)N(C)C(=O)C[C@@H](C(=O)N2CCCCC2)N(C)C(=O)[C@H](C(C)C)N(C)C(=O)C2(CCCC2)NC(=O)[C@@H]2CCCN2C(=O)[C@H](CCc2ccc(C(F)(F)F)c(Cl)c2)NC(=O)CN(C)C(=O)[C@H](Cc2ccccc2F)N(C)C(=O)CN(C)C(=O)CN(C)C1=O [Compound 1583] ([NMeL]I[Sar][Sar][NMePhe(2-F)][Sar][hPhe(3-Cl-4-CF3)]P[Ac5c][NMeV][NMeD]-Piperidide; lactam N-11) | 0.012 | 0.1 to 0.5
